Seven compounds from ChEMBL document CHEMBL1133561, “A novel class of potent 3-isoxazolol GABA(A) antagonists: design, synthesis, and pharmacology” (J Med Chem, 2000) can be followed below.

Assay [1] deals with GABA-A receptor; anion channel. The assay can be described thus: In vitro inhibition of [3H]muscimol to rat brain synaptic membranes. Format: cell membranes, Membrane.
Assay [2] deals with GABA-A receptor; anion channel. The assay can be described thus: Inhibition of Gamma-aminobutyric acid A (GABA-A) receptor in vitro by whole-cell patch-clamp recording in cultured cerebral cortical neurones. Format: functional, Rattus norvegicus. Background: In patch-clamp work, channel activity is measured electrically.
Assay [3] has as its target GABA-A receptor; anion channel. Briefly: Inhibition against Gamma-aminobutyric acid A (GABA-A) receptor. Format: protein-complex assay, Rattus norvegicus.

The term Ki denotes a measure of affinity in units of concentration, obtained from inhibition or displacement. A higher Ki goes with weaker binding. For the compound `Oc1noc(C2CCNCC2)c1CCc1ccc2ccccc2c1`, in assay [1], the affinity corresponds to a Ki of 0.49 µM.
On the same count and under the same terms, as for `CCc1c(O)noc1C1CCNCC1`, the figure is 6.3 µM.
As usually defined, the IC50 is the midpoint of a concentration-inhibition curve. A lower IC50 goes with inhibition by little substance. Compound `Oc1noc(C2CCNCC2)c1Cc1ccccc1` had an IC50 in assay [2] of 4 µM. In assay [1], the Ki was found to be 3.8 µM.
Regarding `Cc1c(O)noc1C1CCNCC1`, the Ki in assay [1] was found to be 10 µM.
For `Oc1noc(C2CCNCC2)c1Cc1ccc2ccccc2c1`, the affinity in assay [1] corresponds to a Ki of 0.049 µM.
In the case of `Oc1noc(C2CCNCC2)c1Cc1c2ccccc2cc2ccccc12`, the Ki in assay [1] stood at 5.9 µM.
`Cc1c(O)noc1CN` yielded an IC50 in assay [3] of over 100 µM.
